Assays:
GABAR = assay: GABA-induced currents in cultured hippocampal neurons; assay type: cell-based
Procedure: Whole cell patch-clamp recordings were performed under voltage-clamp mode using an Axopatch 200B or 1D patch-clamp amplifier (Molecular Devices). Whole-cell currents were recorded at a holding potential of −60 mV unless indicated elsewhere, and signals were filtered at 2 kHz, digitized at 10 kHz (Digidata 1322A). Recording pipettes (3-5 MΩ) were filled with the intracellular solution that contained (mM): CsCl 140, HEPES 10, Mg-ATP 4, QX-314 5, pH 7.20; osmolarity, 290-295 mOsm. BAPTA (10 mM) was added in the intracellular solution (otherwise specified). The coverslips were continuously superfused with the extracellular solution containing (mM): NaCl 140, KCl 5.4, HEPES 10, CaCl2 1.3, glucose 20, pH 7.4; osmolarity, 305-315 mOsm. NMDA, GABA or AMPA induced currents were either applied by NMDA, GABA, AMPA either through perfusion fast-step (Warner Instruments). […]
Next, the inventor evaluated the selectivity profile for Npam02 on two other key ionotropic receptors of the central nervous system (CNS): α-amino-3-hydroxy-5-methyl-4-isoxazolepropionic acid receptor AMPAR, which are known to be a non-NMDA type ionotropic transmembrane receptor for glutamate that mediates fast synaptic transmission in the central nervous system (CNS) and GABA receptors which are the principal inhibitory ligand-gated ion channel receptor. […]

[1] = target: T1, GluN2A component of NMDAR currents in hippocampal slices (Mus musculus, UniProt P35436+P35438); assay: Slice recordings, GluN2A component of synaptic NMDAR currents; settings: FIG. 18
T1 construct: from tissue; host or cells: mouse hippocampal slices, CA1 pyramidal neurons
T1 sequence (P35436 23-1464, other chains not shown): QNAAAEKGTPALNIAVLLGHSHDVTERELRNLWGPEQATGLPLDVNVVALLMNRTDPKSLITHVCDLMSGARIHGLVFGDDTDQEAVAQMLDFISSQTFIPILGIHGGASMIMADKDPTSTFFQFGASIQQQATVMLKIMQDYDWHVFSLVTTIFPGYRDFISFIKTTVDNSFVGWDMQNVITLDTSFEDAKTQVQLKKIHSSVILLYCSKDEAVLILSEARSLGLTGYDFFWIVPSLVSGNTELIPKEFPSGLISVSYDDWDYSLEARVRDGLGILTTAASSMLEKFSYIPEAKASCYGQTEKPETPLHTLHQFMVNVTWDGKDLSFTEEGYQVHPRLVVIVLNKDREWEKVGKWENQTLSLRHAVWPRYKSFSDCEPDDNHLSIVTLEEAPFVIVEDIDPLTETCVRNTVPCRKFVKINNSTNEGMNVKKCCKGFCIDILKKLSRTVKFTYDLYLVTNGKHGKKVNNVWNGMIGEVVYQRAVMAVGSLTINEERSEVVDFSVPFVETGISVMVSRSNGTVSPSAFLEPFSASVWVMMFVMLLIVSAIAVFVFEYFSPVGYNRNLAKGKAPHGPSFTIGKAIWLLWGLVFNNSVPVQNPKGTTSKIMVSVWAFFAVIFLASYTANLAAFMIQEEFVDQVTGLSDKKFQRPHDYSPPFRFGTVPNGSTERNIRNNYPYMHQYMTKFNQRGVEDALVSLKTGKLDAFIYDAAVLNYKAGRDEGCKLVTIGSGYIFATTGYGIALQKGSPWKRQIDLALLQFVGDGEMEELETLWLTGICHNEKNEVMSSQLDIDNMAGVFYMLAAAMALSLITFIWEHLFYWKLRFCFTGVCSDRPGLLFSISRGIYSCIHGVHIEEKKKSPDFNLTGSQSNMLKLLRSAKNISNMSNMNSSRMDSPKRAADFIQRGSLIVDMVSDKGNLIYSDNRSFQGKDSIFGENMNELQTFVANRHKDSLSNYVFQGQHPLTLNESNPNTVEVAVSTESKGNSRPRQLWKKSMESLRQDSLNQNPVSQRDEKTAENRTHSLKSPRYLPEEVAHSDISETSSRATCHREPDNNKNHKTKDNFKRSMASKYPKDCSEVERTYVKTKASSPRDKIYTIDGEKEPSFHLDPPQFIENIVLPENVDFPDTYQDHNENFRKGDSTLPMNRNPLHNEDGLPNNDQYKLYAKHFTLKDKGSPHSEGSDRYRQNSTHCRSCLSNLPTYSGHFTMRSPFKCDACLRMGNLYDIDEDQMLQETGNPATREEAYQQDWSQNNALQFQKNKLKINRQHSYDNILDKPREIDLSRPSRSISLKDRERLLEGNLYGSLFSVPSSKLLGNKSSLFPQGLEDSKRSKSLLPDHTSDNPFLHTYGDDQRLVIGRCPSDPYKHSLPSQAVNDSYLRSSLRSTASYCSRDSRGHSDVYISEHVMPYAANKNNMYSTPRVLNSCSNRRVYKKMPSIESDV
Description: (§1) 6-8 week old C57/Bl6 mice or rats underwent cervical dislocation followed by decapitation. The brain was immediately transferred to an ice cold NMDG-based cutting solution consisting of: (in mM): 120 NMDG, 2.5 KCl, 1.2 NaH2PO4, 25 NaHCO3, 1.0 CaCl2, 7.0 MgCl2, 2.4 Na-pyruvate, 1.3 Na-ascorbate, 20 D-glucose with pH adjusted to 7.35 using HCl acid (unless stated, all chemicals and drugs were purchased from Sigma or BioShop, Canada). The hippocampus was dissected out and transverse hippocampal slices (400 μm) were obtained using a manual tissue chopper (Stoelting, Wood Dale, Ill., USA). Slices recovered in a heated (30° C.) incubating chamber for 1 hr which contained ACSF composed of (in mM): 124 NaCl, 3 KCl, 1.25 NaH2PO4, 1 MgSO47H2O, 2 CaCl2), 26 NaHCO3 and 15 D-glucose which was bubbled continuously with carbogen (95% O2/5% CO2) (pH to 7.3). After 30 additional minutes at room temperature, slices were transferred to a submerged recording chamber and were perfused continuously with carbogenated ACSF (2-3 ml/min). Whole-cell recordings of CA1 pyramidal neurons were performed using the “blind” method with a MultiClamp 700B amplifier. EPSCs (excitatory post synaptic currents) were elicited by stimulating the SC pathway. For isolation of NMDAR currents, cells were voltage clamped at +40 mV. […]

[2] = target: T2, GluN2B NMDARs in hippocampal slices (Mus musculus, UniProt P35438+Q01097); assay: Slice recordings, GluN2B component of synaptic NMDAR currents; settings: FIG. 18
T2 construct: from tissue; host or cells: mouse hippocampal slices, CA1 pyramidal neurons
T2 sequence (Q01097 27-1482, other chains not shown): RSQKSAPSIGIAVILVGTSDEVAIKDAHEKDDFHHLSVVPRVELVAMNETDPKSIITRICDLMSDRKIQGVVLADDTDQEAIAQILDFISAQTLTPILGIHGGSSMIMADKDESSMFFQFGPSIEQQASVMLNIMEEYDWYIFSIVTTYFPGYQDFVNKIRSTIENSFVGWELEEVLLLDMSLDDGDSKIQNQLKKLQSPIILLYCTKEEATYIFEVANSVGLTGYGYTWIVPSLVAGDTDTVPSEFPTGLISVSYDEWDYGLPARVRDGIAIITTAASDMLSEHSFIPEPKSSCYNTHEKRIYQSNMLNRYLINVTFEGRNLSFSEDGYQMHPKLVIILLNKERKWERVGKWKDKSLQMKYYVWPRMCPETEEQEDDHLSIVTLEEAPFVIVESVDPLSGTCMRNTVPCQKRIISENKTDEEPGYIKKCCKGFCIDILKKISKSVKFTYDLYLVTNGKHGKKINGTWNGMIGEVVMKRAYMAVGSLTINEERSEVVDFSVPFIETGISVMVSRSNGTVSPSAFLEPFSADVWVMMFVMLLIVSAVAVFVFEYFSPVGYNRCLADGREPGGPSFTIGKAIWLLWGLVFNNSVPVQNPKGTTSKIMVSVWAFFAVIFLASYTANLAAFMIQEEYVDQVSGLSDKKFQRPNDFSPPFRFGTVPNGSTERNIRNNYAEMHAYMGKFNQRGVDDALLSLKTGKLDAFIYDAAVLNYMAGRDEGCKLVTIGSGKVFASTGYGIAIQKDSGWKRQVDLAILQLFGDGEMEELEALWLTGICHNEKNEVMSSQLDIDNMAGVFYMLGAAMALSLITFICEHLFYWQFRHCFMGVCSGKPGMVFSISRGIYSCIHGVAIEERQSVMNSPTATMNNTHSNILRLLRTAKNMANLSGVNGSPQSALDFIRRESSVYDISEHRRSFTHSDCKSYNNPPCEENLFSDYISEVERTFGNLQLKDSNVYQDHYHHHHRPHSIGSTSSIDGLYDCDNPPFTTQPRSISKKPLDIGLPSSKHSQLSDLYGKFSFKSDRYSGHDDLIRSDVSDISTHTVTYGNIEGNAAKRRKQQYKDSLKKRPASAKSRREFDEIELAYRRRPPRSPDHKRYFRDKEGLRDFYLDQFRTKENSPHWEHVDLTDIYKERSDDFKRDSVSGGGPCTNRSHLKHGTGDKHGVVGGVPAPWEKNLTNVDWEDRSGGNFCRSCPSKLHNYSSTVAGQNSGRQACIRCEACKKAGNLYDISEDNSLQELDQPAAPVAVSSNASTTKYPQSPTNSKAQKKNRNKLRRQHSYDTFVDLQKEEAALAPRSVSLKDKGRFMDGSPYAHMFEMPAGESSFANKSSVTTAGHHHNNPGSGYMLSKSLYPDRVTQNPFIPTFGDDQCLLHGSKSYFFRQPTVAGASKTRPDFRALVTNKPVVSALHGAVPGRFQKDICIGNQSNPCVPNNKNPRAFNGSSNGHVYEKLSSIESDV
Description: as §1

[3] = Pharmacokinetics after i.v. injection, CSF and serum by HPLC-ECD; assay type: in vivo, rat
Procedure: Npam43 was isolated from the CSF and serum matrix using high performance liquid chromatography and quantified via electrochemical detection. The system consisted of an ESA 582 pump (Bedford, Mass.), a pulse damper (Scientific Systems Inc., State College, Pa.), a Rheodyne Inert manual injector (model 9125i, 20 μL injection loop; Rohnert Park, Calif.), a Tosoh Bioscience Super ODS TSK column (2 μm particle, 2 mm×10 mm; Montgomeryville, Pa.), and an Antec Leyden Intro Electrochemical detector with VT-03 flow cell with a Ag/AgCl reference electrode (Vapplied=+800 mV; Leyden, The Netherlands). The mobile phase was a 20 mM phosphate buffer-acetonitrile (80:20, v/v) mixture, pH 7.0, flowed through the system at 0.1 mL/min. The column was maintained at 40° C. throughout the analysis and the injection volume was 8 uL. Prior to use, the mobile was filtered through a […] membrane and degassed using a vacuum pump and maintained under helium purging during experimental testing. EZChrome Elite software (Scientific Software, Pleasanton, Calif.) was used to acquire and analyze chromatographic data.
Samples were prepared by mixing aliquots (50:50) of the specimen with acetonitrile. The samples were mixed, allowed to rest at ambient temperature for 10 min and centrifuged at 5000 g for 5 min. Eight microliters of the supernatant was injected.
CSF and serum samples generated from the in vivo studies were thawed, and 8 μl was transferred to individual Eppendorf tubes. The internal standard (IS) of 2 μl of 0.5 μg/ml Npam50 was then added, followed by 22 μl of acetonitrile, after which samples were vortexed for 5-10 s and centrifuged for 5 min at 20,000×g to sediment precipitated protein. […]
An in-vivo pharmacological profile of Npam43 was evaluated using Sprague Dawley mature (˜300 g) rats. Npam43 was injected intravenously (i.v) at different doses ranging from 0.5-5 mg/kg and cerebrospinal fluid (CSF) and serum samples were extracted and analyzed using a high performance liquid chromatography electrochemical detection assay (HPLC-ECD). […]

Row | SMILES | Effect on GABAR mediated currents (GABAR) | Effect on GluN2A component of NMDAR currents [1] | Effect on GluN2B NMDARs [2] | half-life ([3]; Sprague-Dawley, rat, CSF, iv, rats, estimated) [h] | Blood-brain-barrier penetration ([3]; i.v. 0.5-5 mg/kg, Sprague Dawley rats) | Metabolic stability in the CSF and serum ([3]; i.v., rats, FIG. 22)
1 | COc1cccc(/C=N/NC(=O)c2ccccc2C)c1O [Npam02, (E)-N′-(2-hydroxy-3-methoxybenzylidene)-2-methylbenzohydrazide] | no observable effects |  |  |  |  | 
2 | CCOc1cc(Cl)c(Cl)c(/C=N/NC(=O)c2ccccc2Br)c1O [Npam43, (E)-2-bromo-N′-(2,3-dichloro-5-ethoxy-6-hydroxybenzylidene)benzohydrazide] |  | selectively potentiated the GluN2A component of NMDAR currents | no effects on the GluN2B NMDARs | 2.95 ± 0.6 | effective at penetrating the blood-brain-barrier (BBB) | moderate metabolic stability

Source: patent publication US11166924B2, “N-methyl-d-aspartate receptor allosteric modulators and methods for their use” (Qingdao Primedicine Pharmaceutical Company, Ltd., priority 2016, dated 2021)
